The values that follow come from patent publication US12594268B2, “Methods of treating Fabry disease in patients having a mutation in the GLA gene” (Amicus Therapeutics, Inc., priority 2018, dated 2026).

What all share (format): cell-based
The target in experiment [1] is T1, α-Gal A mutant form W204G (Homo sapiens, UniProt P06280, W204G).
T1 construct: expressed in transfected cells; host or cells: HEK-293
T1 sequence (P06280 32-429 W204G): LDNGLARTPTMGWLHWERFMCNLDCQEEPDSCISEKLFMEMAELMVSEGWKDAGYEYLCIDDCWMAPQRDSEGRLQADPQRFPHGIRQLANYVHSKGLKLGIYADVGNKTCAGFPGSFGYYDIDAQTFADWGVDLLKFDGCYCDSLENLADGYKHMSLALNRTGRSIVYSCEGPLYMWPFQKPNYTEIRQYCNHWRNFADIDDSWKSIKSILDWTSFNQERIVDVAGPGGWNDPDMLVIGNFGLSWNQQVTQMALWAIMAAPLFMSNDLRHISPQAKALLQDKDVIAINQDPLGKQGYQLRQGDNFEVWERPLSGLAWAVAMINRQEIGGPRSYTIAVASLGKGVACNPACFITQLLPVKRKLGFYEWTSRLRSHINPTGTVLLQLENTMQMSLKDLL
Kind of experiment: α-Gal A activity in lysates of transfected HEK-293 cells, W204G. As for the experimental part:
(§1) Baseline and 10 μM migalastat α-Gal A activity: Differences in the α-Gal A activity between lysates incubated in the absence and presence of 10 μM migalastat were determined using a one-tailed, Mann Whitney U test; an increase at 10 μM migalastat with a p<0.05 was considered significant.
(§2) 10 μM migalastat α-Gal A activity (% WT)=(α-Gal A activity in mutant transfected cell lysates incubated with 10 μM migalastat÷α-Gal A activity in wild-type transfected cell lysates without migalastat)*100.
(§3) Absolute increase (% WT)=is the 10 μM migalastat α-Gal A activity (% WT) minus the baseline α-Gal A activity (% WT).
(§4) Relative increase is the 10 μM migalastat α-Gal A activity in mutant transfected cell lysates÷baseline α-Gal A activity in mutant transfected cell lysates incubated without migalastat.

Another experiment deals with T2, α-Gal A mutant form Q57R (Homo sapiens, UniProt P06280, Q57R).
T2 construct: expressed in transfected cells; host or cells: HEK-293
T2 sequence (P06280 32-429 Q57R): T1 sequence (P06280 32-429 W204G) with Q26R, G173W
Kind of experiment: α-Gal A activity in lysates of transfected HEK-293 cells, Q57R. As for the experimental part:
as §1, §2, §3, §4

Experiment [2] deals with T3, α-Gal A mutant form N228D (Homo sapiens, UniProt P06280, N228D).
T3 construct: expressed in transfected cells; host or cells: HEK-293
T3 sequence (P06280 32-429 N228D): T1 sequence (P06280 32-429 W204G) with G173W, N197D
Kind of experiment: α-Gal A activity in lysates of transfected HEK-293 cells, N228D. As for the experimental part:
as §1, §2, §3, §4

Experiment [3] has as its target T4, α-Gal A mutant form N408Y (Homo sapiens, UniProt P06280, N408Y).
T4 construct: expressed in transfected cells; host or cells: HEK-293
T4 sequence (P06280 32-429 N408Y): T1 sequence (P06280 32-429 W204G) with G173W, N377Y
Kind of experiment: α-Gal A activity in lysates of transfected HEK-293 cells, N408Y. As for the experimental part: as §1, §2, §3, §4

Experiment [4] has as its target T5, α-Gal A mutant form P380L (Homo sapiens, UniProt P06280, P380L).
T5 construct: expressed in transfected cells; host or cells: HEK-293
T5 sequence (P06280 32-429 P380L): T1 sequence (P06280 32-429 W204G) with G173W, P349L
Kind of experiment: α-Gal A activity in lysates of transfected HEK-293 cells, P380L. As for the experimental part:
as §1, §2, §3, §4

[5] abbreviates: HEK-293 lysates, 10 μM migalastat, 5 days, mean ± SEM.
The mark [6] stands for this setting: 10 μM migalastat minus baseline.
The mark [7] stands for this setting: 10 μM migalastat ÷ baseline activity.

Substitutions are numbered along the chain they refer to.

As for `OC[C@H]1NC[C@H](O)[C@@H](O)[C@H]1O` [migalastat, (2R,3S,4R,5S)-2-(hydroxymethyl) piperdine-3,4,5-triol], the “Absolute increase (% WT)” value is listed as 6.5 % WT in experiment [1] (10 μM migalastat minus baseline (baseline BLD)); 24.0 % WT at α-Gal A mutant form Q57R (setting [6]); 48.2 % WT in experiment [2] (setting [6]); 44.6 % WT in experiment [3] (setting [6]); 7.1 % WT in experiment [4] (setting [6]). Also, the “10 nM migalastat α-Gal A activity” value in experiment [1] (HEK-293 lysates, 10 nM migalastat as printed, 5 days, mean ± SEM, baseline BLD) turned out to be 1695 ± 198 nmol/mg/h. Further, the “10 μM migalastat α-Gal A activity (% WT)” value in experiment [1] (setting [5]) came to 6.5 ± 0.7 % WT; at α-Gal A mutant form Q57R (setting [5]), 105.0 ± 3.0 % WT; in experiment [2] (setting [5]), 63.2 ± 5.4 % WT; in experiment [3] (setting [5]) it was 85.5 ± 7.7 % WT; in experiment [4] (setting [5]) it was 10.6 ± 1.0 % WT. Moreover, the Relative increase at α-Gal A mutant form Q57R (setting [7]) came out at 1.30; in experiment [2] (setting [7]), 4.12; in experiment [3] (setting [7]) it was 2.09; in experiment [4] (setting [7]) it was 2.98. Moreover, the “10 μM migalastat α-Gal A activity” value amounted to 26357 ± 916 nmol/mg/h at α-Gal A mutant form Q57R (setting [5]), 25816 ± 2273 nmol/mg/h in experiment [2] (setting [5]), 23273 ± 2965 nmol/mg/h in experiment [3] (setting [5]) and 4248 ± 369 nmol/mg/h in experiment [4] (setting [5]).
